Tested on: lymphocytes of patients suffering from chronic lymphoid leukaemia (human leukaemia cells)
Experiment: Sensibility of chronic lymphoid leukaemia lymphocytes in culture, 3H-thymidine incorporation (CPM) with or without PHA stimulation
Format: cell-based
Experimental: The sensibility of human leukaemia cells to acetoxymethyl 3β-(methoxypolyethylene glycol acetoxy)-lup-20(29)-en-28-oate 4c-β at different concentrations (from 0.04 mM up to 1 mM) was tested in vitro. The lymphocytes of three patients (4266866, 4266860 and 4262311) suffering from chronic lymphoid leukaemia were used in cell cultures.
On day 0: A multi-well plate was prepared per patient, each comprising 10^6 cells/well in a total volume of 1 ml. Cells, RPMI (cell growth medium) and test compound 4c-β were added in accordance with table 2 (all experiments were duplicated). The test compound dissolved in RPMI was added in the following amounts: 10 μl≡0.04 mM, 50 μl≡0.2 mM, 100 μl≡0.4 mM, 150 μl≡0.6 mM, 200 μl≡0.8 mM, and 250 μl≡1 mM.
On day 2: • 500 μl was taken from each well of plate 1 and put into a well of plate 2. • Plate 2: cells were tritiated with ^3H-thymidine for 4 hours; after the 4 hours incubation in the presence of radioactivity, plate 2 was harvested and radioactivity was counted. • Plate 1: 50 μl PHA was added to the 500 μl of each well of plate 1.
On day 5: • Plate 1: cells and PHA were tritiated with ^3H-thymidine for 4 hours; after the 4 hours incubation in the presence of radioactivity, plate 1 was harvested and radioactivity was counted.
PHA (a lectin named phytoagglutine, which is a mitogen activating living cells) was added to the cells in culture. PHA acts as a stimulating agent. All human lymphocytes have receptors for this type of lectin and all human lymphocytes undergo lymphoblastic transformation when stimulated by PHA. By adding PHA to the cells in culture, it was possible to measure whether the cells were still alive.
CPM stands for counts per minute and measures the disintegration of the tritiated ^3H-thymidine. Thus, CPM reflects the radioactivity of the cells' DNA having incorporated the tritiated ^3H-thymidine after mitosis. […]
On day 0: A multi-well plate was prepared, comprising 10^6 cells/well in a total volume of 1.5 ml. […] The test compound dissolved in RPMI was added in the following amounts: 125 μl≡0.5 mM and 250 μl≡1 mM. […]
The sensibility of human leukaemia cells to acetoxymethyl 3β-(methoxypolyethylene glycol acetoxy)-lupan-28-oate 8c-β at different concentrations (0.5 mM and 1 mM) was tested in vitro. The lymphocytes of one patient (4316182) suffering from chronic lymphoid leukaemia were used in cell cultures. […]
On day 2: • Plate 1: cells were tritiated with ^3H-thymidine for 4 hours; after the 4 hours incubation in the presence of radioactivity, plate 1 was harvested and radioactivity was counted. • Plate 2: cells were tritiated with ^3H-thymidine for 4 hours; after the 4 hours incubation in the presence of radioactivity, plate 2 was harvested and radioactivity was counted.

[1] = 0.5 mM and 1 mM, one patient, FIG. 4

## Acetoxymethyl 3β-(methoxypolyethylene glycol acetoxy)-lup-20(29)-en-28-oate [compound 4c-β]
Plate 1, PHA added day 2, counted day 5, 0.04 mM up to 1 mM, three patients, FIGS. 2a-c
  activation of cells by PHA after contact with test compound: could no longer be activated by PHA
Plate 2, 0.04 mM up to 1 mM, three patients, FIGS. 2a-c
  time within which cells contacted with test compound were killed (CPM after 3H-thymidine): ≤ 48 h

## Acetoxymethyl 3β-(methoxypolyethylene glycol acetoxy)-lupan-28-oate [compound 8c-β]
[1]
  killing of cells by test compound: killed the cells
  reactivation of cells by addition of PHA after contact with test compound: unable to be reactivated by the addition of PHA

From patent US8586569B2, “Betulonic and betulinic acid derivatives” (priority 2006, dated 2013)
